Structures can show the parent of a compound that is named as a salt.
Assays:
rat primary neurons = assay: Western blot detection of succinated proteins with anti-2SC antibody, without ester hydrolysis; format: cell-based; conditions: 100 μM DMF, 24 hours, absence of ester hydrolysis
Protocol: Primary neurons from newborn rat brain cortices were isolated and cultured using an adaptation of methods described previously. Briefly, postnatal day 1 rats were sacrificed by decapitation, the brains were aseptically dissected, and cortices were separated from the rest of the brain in ice-cold Hibernate®-A medium (Life Technologies) containing 2% (v/v) B-27 supplement (Life Technologies) and 0.5 mM glutamine (Invitrogen™). The tissue was minced in fragments of about 1 mm3 with a scalpel and subjected to digestion with 2 mg/ml papain (Worthington) in the supplemented Hibernate®-A medium for 20 minutes at 30° C. in a shaker incubator set at 100 rpm. After thorough trituration through a fire-polished Pasteur pipette, the tissue was allowed to settle for 5 minutes and the supernatant was carefully layered on top of a discontinuous OptiPrep™ (Sigma-Aldrich™) gradient prepared in Hibernate®-A medium; the layers contained 35, 25, 20 and 15% OptiPrep™. […] After a centrifugation at 500 g for 5 min at room temperature, cells were resuspended in Neurobasal™—A medium containing 0.5 mM glutamine, 2% B-27 supplement, and 5 ng/ml bFGF (Invitrogen™); counted and plated on 24-well plates pretreated with 0.01% poly-L-lysine (Sigma-Aldrich™) at a density of 200,000 cells/well. […] The protein content in the different samples was determined by the Lowry assay. […]

heme oxygenase 1 (HO-1) = assay: Western blot of HO-1 expression after DMF treatment; format: cell-based
Protocol: N1E-115 cells (subclone N1E-115-1 neuroblastoma cells) were obtained from Sigma (08062511, St. Louis, MO). The cells were grown and expanded in non-differentiation medium (NDM): 90% DMEM (Gibco™, Grand Island, NY) with 25 mM glucose, no pyruvate, 25 mM HEPES, 4 mM glutamine and 10% fetal bovine serum (FBS, Atlanta Biologicals, Atlanta, GA). At 80% confluence, the cells were differentiated into neurons in the presence of 2% FBS and 1.25% dimethyl sulfoxide in DMEM for 5 days. In addition to the assessment of the neuronal phenotype by light microscopy, the detection of synaptophysin protein levels was used to confirm successful differentiation. During the final 6 or 24 hours of differentiation, the cells were treated with 10-100 µM DMF and harvested as described above for primary neurons, with the addition of phosphatase inhibitors to the DPBS washes and the RIPA buffer used for scraping to prevent dephosphorylation of CRMP-2. […] To ensure that the succinated proteins detected were solely of neuronal origin, N1E-115 neuroblastoma cells were differentiated to a neuronal phenotype (confirmed by increased synaptophysin content) and treated with DMF for 24 hours. […]

With `COC(=O)/C=C/C(=O)OC` [DMF, dimethyl fumarate] the “detection of succinated proteins using the anti-2SC antibody” value (rat primary neurons) was “only one band ˜50 kDa showing a significant increase in intensity” and the HO-1 expression (heme oxygenase 1 (HO-1)) was “significantly induced HO-1 expression”.
